Where a name gives a salt, the structure may show the parent alone.
Molecular target: T1, haematopoietic prostaglandin D synthase (H-PGDS) (Homo sapiens, UniProt O60760)
T1 construct: Full length human H-PGDS cDNA (Invitrogen Ultimate ORF IOH13026) was amplified by PCR; made in house; host or cells: E. coli BL21 (DE3*), vector pET22b+
Assay: H-PGDS RapidFire High Throughput Mass Spectrometry Assay
Type: biochemical
Conditions: H-PGDS RapidFire MS assay, mean pIC50; read-out: Potency Range (mean pIC50) (converted)
Protocol: The H-PGDS RapidFire™ mass spectrometric assay monitors conversion of prostaglandin H2 (PGH2) to prostaglandin D2 (PGD2) by haematopoietic prostaglandin D synthase (H-PGDS). In the assay format described here, the substrate (PGH2) is formed in situ by the action of cyclooxygenase-2 on arachidonic acid. This first step is set up to be fast, and generates a burst of PGH2 at ˜10 μM. The PGH2 is then further converted to PGD2 by the H-PGDS enzyme. […] Plates are then read on the RapidFire™ high throughput solid phase extraction system (Agilent) which incorporates a solid phase extraction step coupled to a triple quadrupole mass spectrometer (AB SCIEX). Relative levels of PGD2 and PGF2α, which acts as a surrogate for substrate, are measured and a percent conversion calculated.
Full length human H-PGDS cDNA (Invitrogen Ultimate ORF IOH13026) was amplified by PCR with the addition of a 5′ 6-His tag and TEV protease cleavage site. The PCR product was digested with Ndel and Xhol and ligated into pET22b+ (Merck Novagen®). Expression was carried out in E. coli strain BL21 (DE3*) using auto-induction Overnight Express™ Instant TB medium (Merck Novagen®) supplemented with 1% glycerol. The culture was first grown at 37° C. and the temperature was reduced to 25° C. when OD600 reached 2.0. Cells were harvested by centrifugation after a further 18 hr. 10 g of E. coli cell pellet was suspended to a total volume of 80 mL in lysis buffer (20 mM Tris-Cl pH 7.5, 300 mM NaCl, 20 mM imidazole, 5 mM β-mercaptoethanol, 10% glycerol). 1 mg/mL protease inhibitors (Protease Inhibitor Cocktail Set Ill, Merck Calbiochem®) and 1 mg/mL lysozyme were added to the cell suspension. The suspension was then sonicated for 5 min (UltraSonic Processor VCX 750, Cole-Parmer Instrument Co.) with a micro probe (50% amplitude, 10 sec on/off) and then centrifuged at 100,000 g for 90 min (at 4° C.). The supernatant was loaded onto a Ni-NTA HiTrap column (5 mL, GE Heathcare, pre-equilibrated in lysis buffer). The column was washed with 10 column volumes of lysis buffer and eluted with lysis buffer containing 500 mM imidazole. The pooled protein peak fractions were concentrated using a 10 kDa centrifugal filter at 3500 g and 4° C. (Amicon Ultra-15 centrifugal filter unit with Ultracel-10 membrane from Millipore). Further purification of the concentrated protein was carried out using gel filtration chromatography on a HiLoad 26/600 Superdex 75 preparative grade column (GE Healthcare Life Sciences) using 50 mM Tris pH 7.5, 50 mM NaCl, 1 mM dithiothreitol, 1 mM MgCl2. Fractions containing the protein were pooled, concentrated as described above, and stored at −80° C.
The full length human COX-2 gene (accession number L15326) was amplified by PCR to generate an EcoRI-HindIII fragment containing an in-frame FLAG tag. This was subcloned into pFastBac 1 (Invitrogen). The COX2 FLAG plasmid was recombined into the baculovirus genome according to the BAC-to-BAC protocol described by Invitrogen. Transfection into Spodoptera frugiperda (Sf9) insect cells was performed using Cellfectin (Invitrogen), according to the manufacturer's protocol. […] Recombinant virus was added at a Multiplicity of Infection (MOI) of 5 and the culture was allowed to continue for 3 days. Cells were harvested using a continuous feed centrifuge run at 2500 g at a rate of approximately 2 L/min with cooling. The resultant cell slurry was re-centrifuged in pots (2500 g, 20 min, 4° C.) and the cell paste was stored at −80° C. […] The suspension was sonicated in 500 mL batches for 8×5 seconds at 10 u amplitude with the medium tip of an MSE probe sonicator and subsequently incubated at 4° C. for 90 min with gentle stirring. The lysate was centrifuged at 12000 rpm for 45 min at 4° C. in a Sorvall SLA1500 rotor. The supernatant (1400 mL) was added to 420 mL of 20 mM Tris-Cl pH 7.4, 150 mM NaCl, 0.1 mM EDTA to reduce the concentration of n-octyl-β-D-glucopyranoside to 1% w/v.

T1 sequence (O60760 whole entry): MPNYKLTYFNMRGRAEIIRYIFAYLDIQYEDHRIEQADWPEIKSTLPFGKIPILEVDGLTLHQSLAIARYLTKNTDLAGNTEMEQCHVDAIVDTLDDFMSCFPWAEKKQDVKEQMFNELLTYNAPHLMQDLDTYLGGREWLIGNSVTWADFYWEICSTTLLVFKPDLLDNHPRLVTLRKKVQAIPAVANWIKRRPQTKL

Compound | IC50
CS(=O)(=O)CCO[C@H]1CC[C@H](NC(=O)c2cnc3cc(OC(F)F)c(Cl)cc3c2)CC1 [Example 139, 6-Chloro-7-(difluoromethoxy)-N-(trans-4-(2-(methylsulfonyl)ethoxy)cyclohexyl)quinoline-3-carboxamide] | < 10 nM
O=C(N[C@H]1CCNC1=O)c1cnc2cc(N3CCC3)c(Cl)cc2c1 [Example 166, (S)-7-(Azetidin-1-yl)-6-chloro-N-(2-oxopyrrolidin-3-yl)quinoline-3-carboxamide trifluoroacetic Acid Salt] | < 10 nM
C[C@H]1CCN1c1cc2ncc(C(=O)N[C@H]3CC[C@H](C(C)(C)O)CC3)cc2cc1F [Example 174, 6-Fluoro-N-(trans-4-(2-hydroxypropan-2-yl)cyclohexyl)-7-((S)-2-methylazetidin-1-yl)quinoline-3-carboxamide] | 10 to 79.4 nM
CCOC(=O)C[C@H]1CC[C@H](NC(=O)c2cnc3cc(OC(F)F)c(F)cc3c2)CC1 [Example 88, Ethyl 2-(trans-4-(7-(difluoromethoxy)-6-fluoroquinoline-3-carboxamido)cyclohexyl)acetate] | 10 to 79.4 nM
CC(C)(O)[C@H]1CC[C@H](NC(=O)c2cnc3cc(N4CC(F)C4)c(F)cc3c2)CC1 [Example 164, 6-Fluoro-7-(3-fluoroazetidin-1-yl)-N-(trans-4-(2-hydroxypropan-2-yl)cyclohexyl)quinoline-3-carboxamide] | < 10 nM
CC(C)(O)C(=O)N1CCC(NC(=O)c2cnc3cc(OC(F)F)c(Cl)cc3c2)CC1 [Example 220, 6-Chloro-7-(difluoromethoxy)-N-(1-(2-hydroxy-2-methylpropanoyl)piperidin-4-yl)quinoline-3-carboxamide] | < 10 nM
N#Cc1cnc(N2CCC(NC(=O)c3cnc4cc(OC(F)F)c(F)cc4c3)CC2)o1 [Example 97, N-(1-(5-Cyanooxazol-2-yl)piperidin-4-yl)-7-(difluoromethoxy)-6-fluoroquinoline-3-carboxamide] | 10 to 79.4 nM
CCOC(=O)c1coc(N2CC(NC(=O)c3cnc4cc(OC(F)F)c(F)cc4c3)C2)n1 [Example 82, Ethyl 2-(3-(7-(difluoromethoxy)-6-fluoroquinoline-3-carboxamido)azetidin-1-yl)oxazole-4-carboxylate] | 10 to 79.4 nM
Cc1c(OC(F)F)c(Cl)cc2cc(C(=O)N[C@H]3CC[C@H](C(C)(C)O)CC3)cnc12 [Example 229, 6-Chloro-7-(difluoromethoxy)-N-((trans)-4-(2-hydroxypropan-2-yl)cyclohexyl)-8-methylquinoline-3-carboxamide] | 10 to 79.4 nM
Cn1nnnc1N1CCC(NC(=O)c2cnc3cc(C(F)(F)F)ccc3c2)CC1 [Example 107, N-(1-(1-Methyl-1H-tetrazol-5-yl)piperidin-4-yl)-7-(trifluoromethyl)quinoline-3-carboxamide] | 100 to 1000 nM
CC(N[C@H]1CC[C@H](NC(=O)c2cnc3cc(OC(F)F)c(F)cc3c2)CC1)C(F)(F)F (stereo partly drawn) [Example 57, 7-(Difluoromethoxy)-6-fluoro-N-(trans-4-((1,1,1-trifluoropropan-2-yl)amino)cyclohexyl)quinoline-3-carboxamide] | 10 to 79.4 nM
N#Cc1ccc(N2CC(NC(=O)c3cnc4cc(OC(F)F)c(F)cc4c3)C2)nc1 [Example 98, N-(1-(5-Cyanopyridin-2-yl)azetidin-3-yl)-7-(difluoromethoxy)-6-fluoroquinoline-3-carboxamide] | 10 to 79.4 nM
O=C(N[C@H]1CC[C@H](N2CC(O)(C(F)(F)F)C2)CC1)c1cnc2cc(OC(F)F)c(F)cc2c1 [Example 92, 7-(Difluoromethoxy)-6-fluoro-N-(trans-4-(3-hydroxy-3-(trifluoromethyl)azetidin-1-yl)cyclohexyl)quinoline-3-carboxamide] | 10 to 79.4 nM
CN1CCN(C(=O)[C@H]2CC[C@H](NC(=O)c3cnc4cc(OC(F)F)c(Cl)cc4c3)CC2)CC1 [Example 211, 6-Chloro-7-(difluoromethoxy)-N-((trans)-4-(4-methylpiperazine-1-carbonyl)cyclohexyl)quinoline-3-carboxamide] | 10 to 79.4 nM
O=C(N[C@H]1CC[C@H](C(O)C2CC2)CC1)c1cnc2cc(OC(F)F)ccc2c1 (stereo partly drawn) [Example 14, N-(trans-4-(-Cyclopropyl(hydroxy)methyl)cyclohexyl)-7-(difluoromethoxy)quinoline-3-carboxamide] | < 10 nM
C[C@]1(O)C[C@H](NC(=O)c2cnc3cc(OC(F)F)c(Cl)cc3c2)C1 [Example 137, 6-Chloro-7-(difluoromethoxy)-N-((1r,3r)-3-hydroxy-3-methylcyclobutyl)quinoline-3-carboxamide] | 10 to 79.4 nM
CC(C)(O)[C@H]1CC[C@H](NC(=O)c2cnc3cc(C4CC4(F)F)c(F)cc3c2)CC1 (stereo partly drawn) [Example 151, 7-(2,2-Difluorocyclopropyl)-6-fluoro-N-(trans-4-(2-hydroxypropan-2-yl)cyclohexyl)quinoline-3-carboxamide] | 10 to 79.4 nM
CC(C)(O)CO[C@H]1CC[C@H](NC(=O)c2cnc3cc(OC(F)F)c(F)cc3c2)CC1 [Example 60, 7-(Difluoromethoxy)-6-fluoro-N-(trans-4-(2-hydroxy-2-methylpropoxy)cyclohexyl)quinoline-3-carboxamide] | 10 to 79.4 nM
CC(C)Oc1ccc2cc(C(=O)NC3CCN(c4nnnn4C)CC3)cnc2c1 [Example 115, 7-Isopropoxy-N-(1-(1-methyl-1H-tetrazol-5-yl)piperidin-4-yl)quinoline-3-carboxamide] | 100 to 1000 nM
Cc1ccc2cc(C(=O)N[C@H]3CC[C@H](C(C)(C)O)CC3)cnc2c1 [Example 186, N-(trans-4-(2-Hydroxypropan-2-yl)cyclohexyl)-7-methylquinoline-3-carboxamide] | 100 to 1000 nM
CC(C)(O)[C@H]1CC[C@H](NC(=O)c2cnc3cc(Cl)c(Cl)cc3c2)CC1 [Example 202A, 6,7-Dichloro-N-(trans-4-(2-hydroxypropan-2-VI)cyclohexyl)quinoline-3-carboxamide] | 10 to 79.4 nM
CCOc1ccc2cc(C(=O)N[C@H]3CC[C@H](C(C)(C)O)CC3)cnc2c1Cl [Example 218, 8-Chloro-7-ethoxy-N-(trans-4-(2-hydroxypropan-2-yl)cyclohexyl)quinoline-3-carboxamide] | 10 to 79.4 nM
O=C(N[C@H]1CC[C@H]([C@@H](O)C(F)(F)F)CC1)c1cnc2cc(OC(F)F)ccc2c1 (single isomer, unassigned) [Example 20] | < 10 nM
CC(O)(CO[C@H]1CC[C@H](NC(=O)c2cnc3cc(OC(F)F)ccc3c2)CC1)C(F)(F)F (stereo partly drawn) [Example 19, 7-(Difluoromethoxy)-N-(trans-4-(3,3,3-trifluoro-2-hydroxy-2-methylpropoxy)cyclohexyl)quinoline-3-carboxamide] | 10 to 79.4 nM
O=C(N[C@H]1CC[C@@](O)(C(F)F)CC1)c1cnc2cc(OC(F)F)c(Cl)cc2c1 [Example 234, 6-Chloro-7-(difluoromethoxy)-N-((1r,4r)-4-(difluoromethyl)-4-hydroxycyclohexyl)quinoline-3-carboxamide] | 10 to 79.4 nM

Same assay, conditions: in at least one experimental run; read-out: H-PGDS pIC50 value (converted)

Compound | IC50
CC(C)(O)[C@H]1CC[C@H](NC(=O)c2cnc3cc(F)ccc3c2)CC1 [Example 193, 7-Fluoro-N-(trans-4-(2-hydroxypropan-2-yl)cyclohexyl)quinoline-3-carboxamide] | 2000 nM
O=C(N[C@H]1CC[C@H]([C@@H](O)C(F)(F)F)CC1)c1cnc2cc(OC(F)F)ccc2c1 (single isomer, unassigned) [Example 20] | 7.94 nM
